As usually defined, the EC50 is the concentration at which the effect is half-maximal. The term IC50 denotes the midpoint of a concentration-inhibition curve.

The text below walks through data of patent US7825132B2, “Inhibition of FGFR3 and treatment of multiple myeloma” (Novartis Vaccines and Diagnostics, Inc., priority 2002, dated 2010).

One data set relates to OPM-2 cells. The settings on record: Grand et al., Leukemia 2004; cited from earlier work.
Data set [1] deals with cancer and primary cell lines. As to the kind of experiment: antiproliferative activity, MTS assay, 27 cancer and primary cell lines (Table 6). The class given is cell-based. The following applies: Homo sapiens, 26 out of the 27 cell lines, 72 hours. The protocol: . […] The EC50 values were calculated using nonlinear regression. […]
Background: Tetrazolium assays rely on reduction of a dye to a coloured formazan, in cell work by metabolically active cells.

A further data set concerns the target T1, CYP1A2 (Homo sapiens, UniProt P05177).
T1 sequence (P05177 1-516): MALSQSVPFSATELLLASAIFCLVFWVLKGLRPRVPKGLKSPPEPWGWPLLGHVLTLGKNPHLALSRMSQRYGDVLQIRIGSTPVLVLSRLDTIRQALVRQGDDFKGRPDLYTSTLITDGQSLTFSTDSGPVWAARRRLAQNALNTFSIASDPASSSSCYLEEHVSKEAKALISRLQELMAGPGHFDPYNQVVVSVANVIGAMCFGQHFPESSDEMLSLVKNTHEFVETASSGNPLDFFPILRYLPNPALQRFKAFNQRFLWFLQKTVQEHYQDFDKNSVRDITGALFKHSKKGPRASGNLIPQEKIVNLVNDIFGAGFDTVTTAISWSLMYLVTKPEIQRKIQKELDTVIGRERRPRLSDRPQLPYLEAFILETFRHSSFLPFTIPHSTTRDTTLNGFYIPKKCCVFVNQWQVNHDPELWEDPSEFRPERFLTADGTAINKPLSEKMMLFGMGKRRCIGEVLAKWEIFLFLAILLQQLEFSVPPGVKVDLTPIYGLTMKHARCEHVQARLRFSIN
As to the kind of experiment: Inhibition of cDNA derived CYP isozymes. It counts as in vitro ADME. The following applies: cDNA-derived (recombinant) CYP1A2. The text has this:
(§1) The compound was stable in human liver microsomes. […].

A further data set deals with CYP2C9 (Homo sapiens, UniProt P11712). The experiment in a line: Inhibition of cDNA derived CYP isozymes. It counts as in vitro ADME. The settings on record: cDNA-derived (recombinant) CYP2C9.
Description: as §1

For the next data set, the target named is CYP3A4 (Homo sapiens, UniProt P08684). The experiment in a line: Inhibition of cDNA derived CYP isozymes. The following applies: cDNA-derived (recombinant) CYP3A4. The class given is in vitro ADME.
Description: as §1

In the next data set the target is CYP2C19 (Homo sapiens, UniProt P33261). The experiment in a line: Inhibition of cDNA derived CYP isozymes. The class given is in vitro ADME. The following applies: cDNA-derived (recombinant) CYP2C19.
In another data set the target is CYP2D6 (Homo sapiens, UniProt P10635). The experiment in a line: Inhibition of cDNA derived CYP isozymes. The class given is in vitro ADME. The following applies: cDNA-derived (recombinant) CYP2D6.
Data set [2] has as its system FGF-2 supplemented Matrigel neovascularization.
Another data set concerns the target T2, c-Kit (Homo sapiens, UniProt P10721).
T2 construct: Recombinant proteins corresponding to the cytoplasmic domains of the c-Kit and FLT-3 receptors were purchased (Proquinase); purchased Proquinase
The experiment in a line: In vitro RTK kinase assay (TRF or radioactive). It counts as biochemical. The following applies: Table 13.

The nature of data set [3]: Monkey multiple oral dose experiment, plasma levels. It counts as in vivo. The settings on record: compound 1 5 mg/kg BID oral, day 1 and 14 samples.
A short description of data set [4]: Compound 1 and metabolite levels in rat plasma, 2 week toxicology study. The class given is in vivo.
Another data set concerns ERK (MAPK). As to the kind of experiment: ERK (MAPK) phosphorylation in HCT116 tumors. The class given is in vivo. The following applies: dose- and time-dependent.
Data set [5] relates to PC3 human prostate tumor xenografts.
In data set [6] the test system is VEGFR1, VEGFR2, PDGFRβ, and FGFR1. The settings on record: KM12L4a tumors after treatment.
The test system of another data set is TF-1 cells. As to the kind of experiment: cells. The settings on record: Homo sapiens, TF-1, 72 h.

Like-named read-outs stand apart in the source and are kept apart here. Bounds are passed on as bounds.

T2 sequence (P10721 546-976 limits assumed): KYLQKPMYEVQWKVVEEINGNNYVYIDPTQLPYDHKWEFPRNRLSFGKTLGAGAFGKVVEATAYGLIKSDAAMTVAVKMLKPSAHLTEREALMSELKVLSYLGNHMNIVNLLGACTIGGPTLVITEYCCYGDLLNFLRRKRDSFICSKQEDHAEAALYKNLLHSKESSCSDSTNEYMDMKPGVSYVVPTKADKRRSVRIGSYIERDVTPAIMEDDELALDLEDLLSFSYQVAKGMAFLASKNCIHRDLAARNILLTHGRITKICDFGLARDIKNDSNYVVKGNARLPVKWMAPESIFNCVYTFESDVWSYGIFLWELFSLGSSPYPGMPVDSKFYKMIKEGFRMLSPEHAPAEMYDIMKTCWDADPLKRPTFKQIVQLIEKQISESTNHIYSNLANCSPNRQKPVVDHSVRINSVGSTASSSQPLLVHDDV
Sequence of CYP3A4 (P08684 whole entry): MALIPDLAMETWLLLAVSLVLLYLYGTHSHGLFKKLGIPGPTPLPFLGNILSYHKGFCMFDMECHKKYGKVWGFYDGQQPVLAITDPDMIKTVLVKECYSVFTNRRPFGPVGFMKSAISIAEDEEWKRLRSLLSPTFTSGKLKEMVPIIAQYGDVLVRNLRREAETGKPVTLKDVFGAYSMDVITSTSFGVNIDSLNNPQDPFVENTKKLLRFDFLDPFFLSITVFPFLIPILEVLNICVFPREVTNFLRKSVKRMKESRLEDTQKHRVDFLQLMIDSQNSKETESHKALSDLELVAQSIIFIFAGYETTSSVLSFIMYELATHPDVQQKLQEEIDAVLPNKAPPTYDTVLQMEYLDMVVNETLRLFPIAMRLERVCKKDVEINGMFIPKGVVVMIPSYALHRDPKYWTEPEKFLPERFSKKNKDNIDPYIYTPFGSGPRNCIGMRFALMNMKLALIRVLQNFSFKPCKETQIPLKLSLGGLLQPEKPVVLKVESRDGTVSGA
Sequence of CYP2C9 (P11712 whole entry): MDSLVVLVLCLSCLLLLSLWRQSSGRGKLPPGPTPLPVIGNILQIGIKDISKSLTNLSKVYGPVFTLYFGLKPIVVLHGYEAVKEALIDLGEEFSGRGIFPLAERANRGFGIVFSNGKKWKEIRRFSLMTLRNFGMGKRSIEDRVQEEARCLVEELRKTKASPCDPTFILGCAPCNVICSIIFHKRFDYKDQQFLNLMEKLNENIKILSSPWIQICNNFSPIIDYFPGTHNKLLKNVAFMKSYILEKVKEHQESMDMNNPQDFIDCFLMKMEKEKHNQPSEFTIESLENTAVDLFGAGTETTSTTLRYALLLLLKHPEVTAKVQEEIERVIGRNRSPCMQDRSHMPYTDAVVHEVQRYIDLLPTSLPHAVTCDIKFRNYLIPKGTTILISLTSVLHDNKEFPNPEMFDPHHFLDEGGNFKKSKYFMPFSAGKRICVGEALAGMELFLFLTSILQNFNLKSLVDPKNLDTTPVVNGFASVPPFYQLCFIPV
Sequence of CYP2D6 (P10635 whole entry): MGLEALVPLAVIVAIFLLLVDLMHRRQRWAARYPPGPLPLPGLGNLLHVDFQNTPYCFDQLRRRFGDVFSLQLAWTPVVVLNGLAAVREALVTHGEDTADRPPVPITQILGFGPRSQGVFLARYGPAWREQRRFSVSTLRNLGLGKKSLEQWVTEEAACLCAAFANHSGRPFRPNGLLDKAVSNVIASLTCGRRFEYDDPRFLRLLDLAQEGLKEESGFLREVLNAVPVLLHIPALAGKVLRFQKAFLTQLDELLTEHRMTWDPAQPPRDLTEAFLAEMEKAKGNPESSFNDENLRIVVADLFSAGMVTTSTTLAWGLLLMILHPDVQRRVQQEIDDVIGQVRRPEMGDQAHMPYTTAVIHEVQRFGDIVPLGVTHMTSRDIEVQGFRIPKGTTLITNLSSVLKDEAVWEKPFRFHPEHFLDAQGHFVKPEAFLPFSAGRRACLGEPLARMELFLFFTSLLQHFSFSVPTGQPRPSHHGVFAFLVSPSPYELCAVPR
Sequence of CYP2C19 (P33261 whole entry): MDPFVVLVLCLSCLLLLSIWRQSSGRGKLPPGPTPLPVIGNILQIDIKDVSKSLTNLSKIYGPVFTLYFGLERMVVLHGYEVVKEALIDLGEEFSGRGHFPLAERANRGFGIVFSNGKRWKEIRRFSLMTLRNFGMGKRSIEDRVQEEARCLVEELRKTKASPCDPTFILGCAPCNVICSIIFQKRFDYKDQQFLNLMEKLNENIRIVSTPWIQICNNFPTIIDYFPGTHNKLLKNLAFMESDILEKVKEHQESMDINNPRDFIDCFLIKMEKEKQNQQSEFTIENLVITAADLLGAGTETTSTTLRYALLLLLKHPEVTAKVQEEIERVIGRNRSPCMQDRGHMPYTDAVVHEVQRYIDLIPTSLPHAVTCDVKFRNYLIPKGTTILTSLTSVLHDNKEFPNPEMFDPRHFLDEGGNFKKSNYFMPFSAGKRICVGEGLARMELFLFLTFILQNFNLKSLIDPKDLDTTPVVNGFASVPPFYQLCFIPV

Regarding `CCN(CC)CCCCNc1ncc2cc(-c3cc(OC)cc(OC)c3)c(NC(=O)NC(C)(C)C)nc2n1` [PD173074], the “cytotoxic response / apoptosis in OPM2 cells” value with OPM-2 cells is listed as “failed to induce apoptosis”.
Molecule `CN1CCN(c2ccc3[nH]c(-c4c(N)c5c(F)cccc5[nH]c4=O)nc3c2)CC1` [Example 166] gave an EC50 in data set [1] of less than 10 µM.
Consider `CN1CCN(c2ccc3nc(-c4c(N)c5c(F)cccc5[nH]c4=O)[nH]c3c2)CC1`, for which the IC50 at CYP1A2, at CYP2C9, on CYP3A4, at CYP2C19 and on CYP2D6 was greater than 25 µM each time. For the same molecule, the tolerability result in data set [2] (mouse, in vivo) is “well tolerated”.
As to `C[N+]1([O-])CCN(c2ccc3nc(-c4c(N)c5c(F)cccc5[nH]c4=O)[nH]c3c2)CC1` [Compound 2, 4-Amino-5-fluoro-3-[5-(4-methyl-4-oxidopiperazin-1-yl)-1H-benzimidazol-2-yl]quinolin-2(1H)-one], the IC50 at c-Kit was 0.0002 µM. Moreover, in [3], the “presence of the N-oxide metabolite in monkey plasma” value is recorded as “not detected”.
Regarding `Nc1c(-c2nc3ccc(N4CCNCC4)cc3[nH]2)c(=O)[nH]c2cccc(F)c12` [Compound 3, 4-Amino-5-fluoro-3-(5-piperazin-1-yl-1H-benzimidazol-2-yl)quinolin-2(1H)-one], the half-maximal inhibitory concentration (IC50) at c-Kit is 0.0002 µM. Further, the “Des-CH3 (ng/ml), estimated from UV” value in data set [4] (compound 1 30 mg/kg PO, Day 14, 1-2 hr) was 6 ng/mL; in data set [4] (compound 1 30 mg/kg PO, Day 14, 4-8 hr), 12 ng/mL; in data set [4] (compound 1 100 mg/kg PO, Day 1, 1-2 hr) it was 35 ng/mL; in [4] (compound 1 100 mg/kg PO, Day 1, 4-8 hr), 84 ng/mL.
Turning to `CN1CCN(c2ccc3nc(-c4c(N)c5c(F)cccc5[nH]c4=O)[nH]c3c2)CC1` [Compound 1], the “phosphorylation of ERK (MAPK)” value in the data set with ERK (MAPK) was “inhibited”. For the same molecule, the “% Hb inhibition vs. Vehicle treatment of Matrigel + FGF” value was 71% in data set [2] (30 mg/kg), 89% in data set [2] (200 mg/kg) and 91% in data set [2] (300 mg/kg). In [2] (range over 30, 100, 200 and 300 mg/kg), the “inhibition vs. FGF-supplemented controls” value is 70-92%. In addition, the “% TGI vs. vehicle” value in data set [5] (100 mpk q 2 days) came out at 75%; in data set [5] (100 mpk q 3 days), 68%; in [5] (100 mpk q 4 days) it was 66%; in data set [5] (100 mpk qd, days 1-11), 60%. Further, the “phosphorylation of VEGFR1, VEGFR2, PDGFRβ, and FGFR1” value in [6] is “inhibited in a time- and dose-dependent manner”. In the data set on TF-1 cells, this molecule yielded an EC50 of no more than 0.05 µM.
